Where a SMILES comes first, the peptide text is derived from it. [ ]: non-standard residue; d: D form. Aib = CC(C)(N)C(=O)O
Columns and labels:
human GLP-1R = human GLP-1R (Homo sapiens, UniProt P43220); test: Peptide-receptor mediated cAMP accumulation (LANCE Ultra cAMP) in CHO-K1 cells transfected with human GLP-1R; type: cell-based; conditions: hGLP1 pEC50 (cAMP mean (n = 3): 11 point curve starting at 1 nM, Table 3)
human GCGR = human GCGR (Homo sapiens, UniProt P47871); test: Peptide-receptor mediated cAMP accumulation (LANCE Ultra cAMP) in CHO-K1 cells transfected with human GCGR; type: cell-based; conditions: Table 3
human GCGR, sequence (P47871 26-477): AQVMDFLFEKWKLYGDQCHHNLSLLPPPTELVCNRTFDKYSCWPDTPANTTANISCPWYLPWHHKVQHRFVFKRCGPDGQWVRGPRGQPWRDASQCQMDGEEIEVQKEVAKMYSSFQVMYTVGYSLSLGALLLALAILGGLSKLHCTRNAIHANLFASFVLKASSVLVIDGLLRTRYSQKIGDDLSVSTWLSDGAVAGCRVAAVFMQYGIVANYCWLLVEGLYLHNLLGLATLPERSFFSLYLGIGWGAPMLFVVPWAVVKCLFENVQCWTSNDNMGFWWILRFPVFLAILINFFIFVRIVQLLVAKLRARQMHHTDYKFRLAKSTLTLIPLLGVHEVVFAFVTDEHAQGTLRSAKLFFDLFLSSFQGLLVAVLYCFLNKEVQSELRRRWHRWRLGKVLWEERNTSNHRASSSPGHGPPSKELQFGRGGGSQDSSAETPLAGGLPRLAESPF

human GLP-1R, sequence (P43220 24-463): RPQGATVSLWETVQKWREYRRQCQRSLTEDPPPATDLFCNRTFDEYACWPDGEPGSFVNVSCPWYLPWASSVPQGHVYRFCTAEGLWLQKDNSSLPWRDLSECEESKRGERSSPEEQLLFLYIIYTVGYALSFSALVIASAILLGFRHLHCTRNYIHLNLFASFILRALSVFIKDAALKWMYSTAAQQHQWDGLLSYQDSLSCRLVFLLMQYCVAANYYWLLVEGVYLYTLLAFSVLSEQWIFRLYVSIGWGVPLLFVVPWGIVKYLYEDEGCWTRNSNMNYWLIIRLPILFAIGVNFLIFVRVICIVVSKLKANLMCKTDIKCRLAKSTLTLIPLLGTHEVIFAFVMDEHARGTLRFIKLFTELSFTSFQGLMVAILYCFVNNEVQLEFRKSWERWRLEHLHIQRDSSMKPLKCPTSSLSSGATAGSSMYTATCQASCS

Row | Structure (SMILES) | EC50 (human GLP-1R) [nM] | EC50 (human GCGR) [nM]
1 | CC(C)C[C@H](NC(=O)[C@H](Cc1ccc(O)cc1)NC(=O)[C@H](CCCCN)NC(=O)[C@H](CO)NC(=O)[C@H](Cc1ccc(O)cc1)NC(=O)[C@H](CC(=O)O)NC(=O)[C@H](CO)NC(=O)[C@@H](NC(=O)[C@H](Cc1ccccc1)NC(=O)[C@@H](NC(=O)CNC(=O)[C@H](Cc1c[nH]cn1)NC(=O)[C@H](CO)NC(=O)[C@@H](N)Cc1ccc(O)cc1)[C@@H](C)O)[C@@H](C)O)C(=O)N[C@@H](CC(=O)O)C(=O)NC(C)(C)C(=O)N[C@@H](CCCCN)C(=O)N[C@@H](CCCNC(=N)N)C(=O)N[C@@H](C)C(=O)N[C@@H](CCC(N)=O)C(=O)N[C@@H](CCC(=O)O)C(=O)N[C@@H](Cc1ccccc1)C(=O)N[C@H](C(=O)NC(C)(C)C(=O)N[C@@H](Cc1c[nH]c2ccccc12)C(=O)N[C@@H](CC(C)C)C(=O)N[C@@H](CCC(=O)O)C(=O)N[C@@H](CC(=O)O)C(=O)N[C@@H](CCC(=O)O)C(=O)N1CCC[C@H]1C(=O)N[C@@H](CO)C(=O)N[C@@H](CO)C(=O)NCC(=O)N[C@@H](CO)C(=O)N1CCC[C@H]1C(=O)N1CCC[C@H]1C(=O)N1CCC[C@H]1C(=O)N[C@@H](CO)C(=O)O)C(C)C [Compound A22] (H-YSHGTFTSDYSKYLD[Aib]KRAQEFV[Aib]WLEDEPSSGSPPPS-OH; N-terminus assumed) | > 1 | 0.01
2 | CC(C)C[C@H](NC(=O)[C@H](Cc1ccc(O)cc1)NC(=O)[C@H](CCCCN)NC(=O)[C@H](CO)NC(=O)[C@H](Cc1ccc(O)cc1)NC(=O)[C@H](CC(=O)O)NC(=O)[C@H](CO)NC(=O)[C@@H](NC(=O)[C@H](Cc1ccccc1)NC(=O)[C@@H](NC(=O)CNC(=O)[C@H](Cc1c[nH]cn1)NC(=O)[C@H](CO)NC(=O)[C@@H](N)Cc1ccc(O)cc1)[C@@H](C)O)[C@@H](C)O)C(=O)N[C@@H](CC(=O)O)C(=O)NC(C)(C)C(=O)N[C@@H](CCCCN)C(=O)N[C@@H](CCCNC(=N)N)C(=O)N[C@@H](C)C(=O)N[C@@H](CCC(N)=O)C(=O)N[C@@H](CCC(=O)O)C(=O)N[C@@H](Cc1ccccc1)C(=O)N[C@H](C(=O)NC(C)(C)C(=O)N[C@@H](Cc1c[nH]c2ccccc12)C(=O)N[C@@H](CC(C)C)C(=O)N[C@@H](CCC(=O)O)C(=O)N[C@@H](CC(=O)O)C(=O)N[C@@H](CCC(=O)O)C(=O)N1CCC[C@H]1C(=O)N[C@@H](CO)C(=O)N[C@@H](CO)C(=O)N[C@@H](CCCCN)C(=O)N[C@@H](C)C(=O)N1CCC[C@H]1C(=O)N1CCC[C@H]1C(=O)N1CCC[C@H]1C(=O)N[C@@H](CO)C(=O)O)C(C)C [Compound A23] (H-YSHGTFTSDYSKYLD[Aib]KRAQEFV[Aib]WLEDEPSSKAPPPS-OH; N-terminus assumed) | > 1 | 0.00631
3 | CC(C)C[C@H](NC(=O)[C@H](Cc1ccc(O)cc1)NC(=O)[C@H](CCCCN)NC(=O)[C@H](CO)NC(=O)[C@H](Cc1ccc(O)cc1)NC(=O)[C@H](CC(=O)O)NC(=O)[C@H](CO)NC(=O)[C@@H](NC(=O)[C@H](Cc1ccccc1)NC(=O)[C@@H](NC(=O)CNC(=O)[C@H](Cc1c[nH]cn1)NC(=O)[C@H](CO)NC(=O)[C@@H](N)Cc1ccc(O)cc1)[C@@H](C)O)[C@@H](C)O)C(=O)N[C@@H](CC(=O)O)C(=O)NC(C)(C)C(=O)N[C@@H](CCCCN)C(=O)N[C@@H](CCCNC(=N)N)C(=O)N[C@@H](C)C(=O)N[C@@H](CCC(N)=O)C(=O)N[C@@H](CCC(=O)O)C(=O)N[C@@H](Cc1ccccc1)C(=O)N[C@H](C(=O)NC(C)(C)C(=O)N[C@@H](Cc1c[nH]c2ccccc12)C(=O)N[C@@H](CC(C)C)C(=O)N[C@@H](CCC(=O)O)C(=O)N[C@@H](CC(=O)O)C(=O)N[C@@H](CCC(=O)O)C(=O)N1CCC[C@H]1C(=O)N[C@@H](CO)C(=O)N[C@@H](CO)C(=O)NCC(=O)N[C@@H](C)C(=O)N1CCC[C@H]1C(=O)N1CCC[C@H]1C(=O)N1CCC[C@H]1C(=O)N[C@@H](CO)C(=O)N[C@@H](CO)C(=O)O)C(C)C [Compound A25] (H-YSHGTFTSDYSKYLD[Aib]KRAQEFV[Aib]WLEDEPSSGAPPPSS-OH; N-terminus assumed) | > 1 | 0.00501
4 | CC(C)C[C@H](NC(=O)[C@H](Cc1ccc(O)cc1)NC(=O)[C@H](CCCCN)NC(=O)[C@H](CO)NC(=O)[C@H](Cc1ccc(O)cc1)NC(=O)[C@H](CC(=O)O)NC(=O)[C@H](CO)NC(=O)[C@@H](NC(=O)[C@H](Cc1ccccc1)NC(=O)[C@@H](NC(=O)CNC(=O)[C@H](Cc1c[nH]cn1)NC(=O)[C@H](CO)NC(=O)[C@@H](N)Cc1ccc(O)cc1)[C@@H](C)O)[C@@H](C)O)C(=O)N[C@@H](CC(=O)O)C(=O)NC(C)(C)C(=O)N[C@@H](CCCCN)C(=O)N[C@@H](CCCNC(=N)N)C(=O)N[C@@H](C)C(=O)N[C@@H](CCC(N)=O)C(=O)N[C@@H](CCC(=O)O)C(=O)N[C@@H](Cc1ccccc1)C(=O)N[C@H](C(=O)NC(C)(C)C(=O)N[C@@H](Cc1c[nH]c2ccccc12)C(=O)N[C@@H](CC(C)C)C(=O)N[C@@H](CCC(=O)O)C(=O)N[C@@H](CC(=O)O)C(=O)N[C@@H](CCC(=O)O)C(=O)N1CCC[C@H]1C(=O)N[C@@H](CO)C(=O)N[C@@H](CO)C(=O)NCC(=O)N[C@@H](C)C(=O)N1CCC[C@H]1C(=O)N1CCC[C@H]1C(=O)N1CCC[C@H]1C(=O)N[C@@H](CO)C(=O)N[C@@H](CCC(=O)O)C(=O)O)C(C)C [Compound A26] (H-YSHGTFTSDYSKYLD[Aib]KRAQEFV[Aib]WLEDEPSSGAPPPSE-OH; N-terminus assumed) | > 1 | 0.00794
5 | CC(C)C[C@H](NC(=O)[C@H](Cc1ccc(O)cc1)NC(=O)[C@H](CCCCN)NC(=O)[C@H](CO)NC(=O)[C@H](Cc1ccc(O)cc1)NC(=O)[C@H](CC(=O)O)NC(=O)[C@H](CO)NC(=O)[C@@H](NC(=O)[C@H](Cc1ccccc1)NC(=O)[C@@H](NC(=O)CNC(=O)[C@H](Cc1c[nH]cn1)NC(=O)[C@H](CO)NC(=O)[C@@H](N)Cc1ccc(O)cc1)[C@@H](C)O)[C@@H](C)O)C(=O)N[C@@H](CC(=O)O)C(=O)NC(C)(C)C(=O)N[C@@H](CCCCN)C(=O)N[C@@H](CCCNC(=N)N)C(=O)N[C@@H](C)C(=O)N[C@@H](CCC(N)=O)C(=O)N[C@@H](CCC(=O)O)C(=O)N[C@@H](Cc1ccccc1)C(=O)N[C@H](C(=O)NC(C)(C)C(=O)N[C@@H](Cc1c[nH]c2ccccc12)C(=O)N[C@@H](CC(C)C)C(=O)N[C@@H](CCC(=O)O)C(=O)N[C@@H](CC(=O)O)C(=O)N[C@@H](CCC(=O)O)C(=O)N1CCC[C@H]1C(=O)N[C@@H](CCCCN)C(=O)N[C@@H](CO)C(=O)NCC(=O)N[C@@H](C)C(=O)N1CCC[C@H]1C(=O)N1CCC[C@H]1C(=O)N1CCC[C@H]1C(=O)N[C@@H](CO)C(=O)O)C(C)C [Compound A29] (H-YSHGTFTSDYSKYLD[Aib]KRAQEFV[Aib]WLEDEPKSGAPPPS-OH) | > 1 | 0.00794
6 | CC(C)C[C@H](NC(=O)[C@H](Cc1ccc(O)cc1)NC(=O)[C@H](CCCCN)NC(=O)[C@H](CO)NC(=O)[C@H](Cc1ccc(O)cc1)NC(=O)[C@H](CC(=O)O)NC(=O)[C@H](CO)NC(=O)[C@@H](NC(=O)[C@H](Cc1ccccc1)NC(=O)[C@@H](NC(=O)CNC(=O)[C@H](Cc1c[nH]cn1)NC(=O)[C@H](CO)NC(=O)[C@@H](N)Cc1ccc(O)cc1)[C@@H](C)O)[C@@H](C)O)C(=O)N[C@@H](CC(=O)O)C(=O)NC(C)(C)C(=O)N[C@@H](CCCCN)C(=O)N[C@@H](CCCNC(=N)N)C(=O)N[C@@H](C)C(=O)N[C@@H](CCC(N)=O)C(=O)N[C@@H](CCC(=O)O)C(=O)N[C@@H](Cc1ccccc1)C(=O)N[C@H](C(=O)NC(C)(C)C(=O)N[C@@H](Cc1c[nH]c2ccccc12)C(=O)N[C@@H](CC(C)C)C(=O)N[C@@H](CCC(=O)O)C(=O)N[C@@H](CC(=O)O)C(=O)N[C@@H](CCC(=O)O)C(=O)N1CCC[C@H]1C(=O)N[C@@H](CO)C(=O)N[C@@H](CCCCN)C(=O)NCC(=O)N[C@@H](C)C(=O)N1CCC[C@H]1C(=O)N1CCC[C@H]1C(=O)N1CCC[C@H]1C(=O)N[C@@H](CO)C(=O)O)C(C)C [Compound A30] (H-YSHGTFTSDYSKYLD[Aib]KRAQEFV[Aib]WLEDEPSKGAPPPS-OH; N-terminus assumed) | > 1 | 0.0126
7 | CC(C)C[C@H](NC(=O)[C@H](Cc1ccc(O)cc1)NC(=O)[C@H](CCCCN)NC(=O)[C@H](CO)NC(=O)[C@H](Cc1ccc(O)cc1)NC(=O)[C@H](CC(=O)O)NC(=O)[C@H](CO)NC(=O)[C@@H](NC(=O)[C@H](Cc1ccccc1)NC(=O)[C@@H](NC(=O)CNC(=O)[C@H](Cc1c[nH]cn1)NC(=O)[C@H](CO)NC(=O)[C@@H](N)Cc1ccc(O)cc1)[C@@H](C)O)[C@@H](C)O)C(=O)N[C@@H](CC(=O)O)C(=O)NC(C)(C)C(=O)N[C@@H](CCCCN)C(=O)N[C@@H](CCCNC(=N)N)C(=O)N[C@@H](C)C(=O)N[C@@H](CCC(N)=O)C(=O)N[C@@H](CCC(=O)O)C(=O)N[C@@H](Cc1ccccc1)C(=O)N[C@H](C(=O)NC(C)(C)C(=O)N[C@@H](Cc1c[nH]c2ccccc12)C(=O)N[C@@H](CC(C)C)C(=O)N[C@@H](CCC(=O)O)C(=O)N[C@@H](CC(=O)O)C(=O)N[C@@H](CCC(=O)O)C(=O)N1CCC[C@H]1C(=O)N[C@@H](CCC(=O)O)C(=O)N[C@@H](CO)C(=O)NCC(=O)N[C@@H](C)C(=O)N1CCC[C@H]1C(=O)N1CCC[C@H]1C(=O)N1CCC[C@H]1C(=O)N[C@@H](CO)C(=O)O)C(C)C [Compound A31] (H-YSHGTFTSDYSKYLD[Aib]KRAQEFV[Aib]WLEDEPESGAPPPS-OH; N-terminus assumed) | > 1 | 0.002
